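Protocol summary: plate cells (96-well), add compound at 5 concentrations, incubate 48 h, interpolate endpoints linearly. GI50: concentration for 50% inhibition of growth.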 Activity calls are given as the source filed them. No stated cut-off is given here; in the data, active = GI50 up to about 1.1 µM and inactive = higher.
Tests used:
Assay in all cases: NCI anticancer screen, dose series, 48 h
786-0 = tested on: 786-0
A498 = tested on: A498
A549 = tested on: A549
ACHN = tested on: ACHN
BT-549 = tested on: BT-549
CAKI-1 = tested on: CAKI-1
CCRF-CEM = tested on: CCRF-CEM
COLO 205 = tested on: COLO 205
DU-145 = tested on: DU-145
EKVX = tested on: EKVX
HCC 2998 = tested on: HCC 2998
HCT-116 = tested on: HCT-116
HCT-15 = tested on: HCT-15
HL-60 = tested on: HL-60
HOP-62 = tested on: HOP-62
HOP-92 = tested on: HOP-92
HT-29 = tested on: HT-29
Hs-578T = tested on: Hs-578T
IGROV-1 = tested on: IGROV-1
K562 = tested on: K562
KM12 = tested on: KM12
LOX IMVI = tested on: LOX IMVI
M14 = tested on: M14
MCF7 = tested on: MCF7
MDA-MB-231 = tested on: MDA-MB-231
MDA-MB-435 = tested on: MDA-MB-435
MDA-N = tested on: MDA-N
MOLT-4 = tested on: MOLT-4
Malme-3M = tested on: Malme-3M
NCI-H226 = tested on: NCI-H226
NCI-H23 = tested on: NCI-H23
NCI-H460 = tested on: NCI-H460
NCI-H522 = tested on: NCI-H522
NCI/ADR-RES = tested on: NCI/ADR-RES
OVCAR-3 = tested on: OVCAR-3
OVCAR-4 = tested on: OVCAR-4
OVCAR-5 = tested on: OVCAR-5
OVCAR-8 = tested on: OVCAR-8
PC-3 = tested on: PC-3
RPMI-8226 = tested on: RPMI-8226
RXF 393 = tested on: RXF 393
SF-268 = tested on: SF-268
SF-295 = tested on: SF-295
SF-539 = tested on: SF-539
SK-MEL-28 = tested on: SK-MEL-28
SK-MEL-2 = tested on: SK-MEL-2
SK-MEL-5 = tested on: SK-MEL-5
SK-OV-3 = tested on: SK-OV-3
SN12C = tested on: SN12C
SNB-19 = tested on: SNB-19
SNB-75 = tested on: SNB-75
SW-620 = tested on: SW-620
T47D = tested on: T47D
TK-10 = tested on: TK-10
U-251 = tested on: U-251
UACC-257 = tested on: UACC-257
UACC-62 = tested on: UACC-62
UO-31 = tested on: UO-31

In the case of `O=C(/C=C/c1ccccc1)CCN1CCN(CCC(=O)/C=C/c2ccccc2)CC1`, the GI50 (786-0) was 6.05 µM (inactive), the GI50 (A498) was 18.9 µM (inactive) and the GI50 (A549) was 30.9 µM (inactive). The GI50 (ACHN) was 16 µM (inactive), the GI50 (BT-549) was 15.1 µM (inactive) and the GI50 (CAKI-1) was 17.2 µM (inactive). The GI50 (CCRF-CEM) was 3.29 µM (inactive), the GI50 (COLO 205) was 16.4 µM (inactive) and the GI50 (DU-145) was 17.6 µM (inactive). For the same compound, the GI50 (EKVX) was 18.6 µM (inactive), the GI50 (HCC 2998) was 16.7 µM (inactive) and the GI50 (HCT-116) was 2.16 µM (inactive). For the same compound, the GI50 (HCT-15) was 10.9 µM, the GI50 (HL-60) was 3.64 µM (inactive) and the GI50 (HOP-62) was 22.6 µM (inactive). For the same compound, the GI50 (HOP-92) was 19.6 µM (inactive), the GI50 (HT-29) was 14.3 µM (inactive) and the GI50 (Hs-578T) was 10.4 µM (inactive). The GI50 (IGROV-1) was 18.2 µM (inactive), the GI50 (K562) was 3.97 µM (inactive) and the GI50 (KM12) was 4.82 µM (inactive). The GI50 (LOX IMVI) was 2.38 µM (inactive), the GI50 (M14) was 11.7 µM (inactive) and the GI50 (MCF7) was 5.81 µM (inactive). The GI50 (MDA-MB-231) was 5.5 µM (inactive), the GI50 (MDA-MB-435) was 3.72 µM (inactive) and the GI50 (MDA-N) was 2.19 µM (inactive). The GI50 (MOLT-4) was 4.47 µM (inactive), the GI50 (Malme-3M) was 16.2 µM (inactive) and the GI50 (NCI-H226) was 16.2 µM (inactive). For the same compound, the GI50 (NCI-H23) was 16 µM (inactive), the GI50 (NCI-H460) was 15.2 µM (inactive) and the GI50 (NCI-H522) was 13.2 µM (inactive). For the same compound, the GI50 (NCI/ADR-RES) was 24.7 µM (inactive), the GI50 (OVCAR-3) was 16.8 µM (inactive) and the GI50 (OVCAR-4) was 16.5 µM (inactive). The GI50 (OVCAR-5) was 16.7 µM (inactive), the GI50 (OVCAR-8) was 16.3 µM (inactive) and the GI50 (PC-3) was 16.8 µM (inactive). The GI50 (RPMI-8226) was > 100 µM (inactive), the GI50 (RXF 393) was 13.7 µM (inactive) and the GI50 (SF-268) was 13.8 µM (inactive). For the same compound, the GI50 (SF-295) was 17.2 µM (inactive), the GI50 (SF-539) was 14.9 µM (inactive) and the GI50 (SK-MEL-28) was 14.2 µM (inactive). For the same compound, the GI50 (SK-MEL-2) was 17.9 µM (inactive), the GI50 (SK-MEL-5) was 14.7 µM (inactive) and the GI50 (SK-OV-3) was 13.5 µM (inactive). The GI50 (SN12C) was 10.1 µM (inactive), the GI50 (SNB-19) was 17.6 µM (inactive) and the GI50 (SNB-75) was 15.8 µM (inactive). For the same compound, the GI50 (SW-620) was 4.67 µM (inactive), the GI50 (T47D) was 14.9 µM (inactive) and the GI50 (TK-10) was 16.4 µM (inactive). For the same compound, the GI50 (U-251) was 16.7 µM (inactive), the GI50 (UACC-257) was 11.5 µM (inactive) and the GI50 (UACC-62) was 16.3 µM (inactive). The GI50 (UO-31) was 16.9 µM (inactive).

Source: ChEMBL document CHEMBL1201862, “PubChem BioAssay data set” (2004)
